According to patent US9656953B2, “Inhibition of cell proliferation” (University of South Florida, priority 2005, dated 2017):
Entries after “also recorded” stand apart in the source; their conditions may differ.

Tests used:
[1] = biological target: T1, Rb:Raf-1 binding (Homo sapiens, UniProt P04049+P06400); test: GST-Rb/GST-Raf-1 ELISA; conditions: concentration that inhibits the Rb:Raf-1 binding by 50%, triplicate; read-out: IC50 (nM), inhibition of the Rb:Raf-1 binding
T1 construct: a glutathione S-transferase (GST) Raf-1 (1-149aa) overnight at 4° C; made in house
T1 sequence (P04049 1-149 limits assumed): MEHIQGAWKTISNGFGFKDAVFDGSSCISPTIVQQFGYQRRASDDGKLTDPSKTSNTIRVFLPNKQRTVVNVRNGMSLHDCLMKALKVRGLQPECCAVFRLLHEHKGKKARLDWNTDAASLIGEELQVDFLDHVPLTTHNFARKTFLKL
T1 sequence (P06400 whole entry): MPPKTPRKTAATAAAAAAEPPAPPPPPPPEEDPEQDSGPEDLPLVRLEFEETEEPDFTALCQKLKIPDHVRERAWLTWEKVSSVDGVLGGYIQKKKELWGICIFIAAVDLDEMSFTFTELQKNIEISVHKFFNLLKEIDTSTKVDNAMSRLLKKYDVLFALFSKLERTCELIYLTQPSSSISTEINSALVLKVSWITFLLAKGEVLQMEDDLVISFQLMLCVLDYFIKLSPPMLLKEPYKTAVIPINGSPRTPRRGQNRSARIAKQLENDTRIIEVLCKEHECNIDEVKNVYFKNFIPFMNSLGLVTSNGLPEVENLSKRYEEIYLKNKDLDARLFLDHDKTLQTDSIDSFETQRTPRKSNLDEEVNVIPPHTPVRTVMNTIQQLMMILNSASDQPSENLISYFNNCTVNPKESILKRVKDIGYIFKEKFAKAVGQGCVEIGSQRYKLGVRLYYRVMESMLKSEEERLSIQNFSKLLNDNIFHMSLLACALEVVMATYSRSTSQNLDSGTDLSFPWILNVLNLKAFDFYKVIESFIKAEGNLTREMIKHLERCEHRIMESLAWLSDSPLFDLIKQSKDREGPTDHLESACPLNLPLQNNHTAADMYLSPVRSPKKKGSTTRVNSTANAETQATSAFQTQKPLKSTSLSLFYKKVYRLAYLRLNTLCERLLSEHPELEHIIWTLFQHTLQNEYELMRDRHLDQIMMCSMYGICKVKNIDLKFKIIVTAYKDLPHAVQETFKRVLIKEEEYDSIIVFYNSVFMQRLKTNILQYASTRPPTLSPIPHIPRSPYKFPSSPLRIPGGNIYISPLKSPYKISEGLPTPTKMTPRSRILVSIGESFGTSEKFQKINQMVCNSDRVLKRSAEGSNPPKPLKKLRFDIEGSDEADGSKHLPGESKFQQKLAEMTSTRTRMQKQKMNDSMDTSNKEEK
Experimental: In vitro library screening assays. Enzyme Linked ImmunoSorbent Assay (ELISA) 96-well plates were coated with 1 μg/mL of a glutathione S-transferase (GST) Raf-1 (1-149aa) overnight at 4° C. Subsequently the plates were blocked and GST Rb at 20 μg/mL was rotated at room temperature (RT) for 30 minutes in the presence or absence of the compounds at 20 micromolar (μM). GST-Rb +/− compounds were then added to the plate and incubated for 90 minutes (min) at 37° C. The amount of Rb bound to Raf-1 was detected by Rb polyclonal antibody (Santa Cruz Biotechnology, Santa Cruz, Calif.) 1:1000 incubated for 60 min at 37° C. Donkey-anti-rabbit-IgG-HRP (1:10,000) was added to the plate and incubated at 37° C. for 60 minutes. The color was developed with orthophenylenediamine (Sigma, St. Louis, Mo.) and the reaction was terminated with 3 molar (M) H2SO4. Absorbance was read at 490 nanometers (nm). To determine disruption of Rb to E2F1, Phb, or HDAC1 the above protocol was used with the exception of coating GST Rb on the ELISA plate and adding the drugs in the presence or absence of GST E2F1, Phb, or HDAC1. […] Prohibitin monoclonal antibody was used at 1:1000 to detect the amount of Rb bound to Prohibitin. For disruption of MEK-Raf-1 binding ELISAs, Raf-1 1 microgram/milliliter (μg/mL) was coated on the plate and GST-MEK (20 μg/mL) was incubated +/− the compounds for 30 minutes at room temperature. Mek1 polyclonal antibody was used at 1:1000 to detect the binding of Raf-1 to Mek1. The IC50 concentrations for the Rb:Raf-1 inhibitors were determined by plotting with Origin 7.5 software (Origin, Northampton, Mass.).
A screen was developed to identify small molecule inhibitors of the Rb:Raf-1 interaction. A diversity set, comprising 1981 compounds (National Cancer Institute, Bethesda, Md.) was examined using a glutathione S-transferase-retinoblastoma/glutathione S-transferase-Raf-1 kinase Enzyme-Linked ImmunoSorbent Assay screen (GST-Rb/GST-Raf-1 ELISA).

[2] = system: binding of Raf-1 to Mek1/2; test: IP-western, A-549 cells, Raf-1-Mek1/2; assay type: cell-based, human
From the text: (§1) Lysate preparation, pmmunoprecipitation, and pestern plotting.

[3] = system: Aspc1, PANC1, and CAPAN2 pancreatic cancer cells; test: BrdU incorporation, S-phase entry, pancreatic cancer cells; assay type: cell-based; conditions: range over three pancreatic cell lines
Experimental: (§2) Proliferation assays. Bromodeoxyuridine (BrdU) labeling kits were obtained from Roche Biochemicals (Indianapolis, Ind.). Cells were plated in poly-D-lysine coated chamber slides at a density of 10,000 cells per well and rendered quiescent by serum starvation for 24 hours. Cells were then re-stimulated with serum in the presence or absence of the indicated drugs for 18 h. S-phase cells were visualized by microscopy and quantitated by counting 3 fields of 100 in quadruplicate.

[4] = system: LNCaP prostate cell line; test: BrdU proliferation assay, LNCaP; assay type: cell-based
Experimental: as §2
(§3) Prostate cell lines LNCaP and PC3 both contain mutations in K-Ras and PTEN genes.

[5] = system: PC3 prostate cell line; test: BrdU proliferation assay, PC3; assay type: cell-based
Experimental: as §2, §3

[6] = system: A549 cells infected with Ad-cyclin D; test: BrdU incorporation, A549 infected with Ad-cyclin D; assay type: cell-based, human; conditions: 20 μM of 3a for 36 h
Experimental: as §2
To this end, A549 cells were infected with Ad-E2F1 or Ad-cyclin D, in the presence of 20 μM of 3a for 36 h. Ad-GFP infected cells were used as a control.

[7] = system: PANC1 cells; test: Soft agar assay, PANC1; assay type: cell-based
Experimental: Soft Agar Assay. Soft agar assays were done in triplicate in 12-well plates (Corning, Corning N.Y.). First, the bottom layer of agar (0.6%) was allowed to solidify at room temperature. Next the top layer of agar was (0.3%) was mixed with 5,000 cells per well and the indicated drug. The drugs were added twice weekly in complete media to the agar wells. Colonies were quantified by staining with MTT (3-(4,5-Dimethylthiazol-2-yl)-2,5-diphenyltetrazolium bromide) 1 mg/mL for 1 hour at 37° C.
Experiments were also carried out to examine the effect of 3a in inhibiting the adherence-independent growth of cancer cells in soft agar.

[8] = system: H1650 tumors; test: H1650 xenograft in nude mice; assay type: in vivo
[9] = system: A549-sh6 tumors; test: A549-sh6 (Rb shRNA) xenograft in nude mice; assay type: in vivo; conditions: 150 mpk orally
Experimental: Animal Studies. Nude mice (Charles River, Wilminton, Mass., USA) were maintained in accordance with Institutional Animal Care and Use Committee (IAUCUC) procedures and guidelines. A549 cells were harvested and resuspended in PBS, and then injected s.c. into the right and left flanks (10×10^6 cells per flank) of 8-week old female nude mice as reported previously (Sun 99). When tumors reached about 100-200 mm^3, animals were dosed intraperitoneally i.p. or orally by gavage with 0.1 mL solution once daily. Control animals received a vehicle, whereas treated animals were given 3a or RRD-238a at the indicated doses. The tumor volumes were determined by measuring the length (l) and the width (w) and calculating the volume (V=lw^2/2) as described previously (Sun 99). Statistical significance between control and treated animals were evaluated using Student's t-test.
Athymic nude mice were implanted with 1×10^7 A549 cells bilaterally and the tumors were allowed to reach 200 mm^3 in size before treatment began. […] Furthermore, to examine whether 3a could affect the growth of tumors lacking Rb in vivo, sh6 and sh8 (shRNA for Rb) cell lines were implanted into the flanks of nude mice. The mice were given 3a orally at 150 mpk and the control groups were administered the vehicle.

[10] = biological target: T2, Rb:Raf-1 interaction in tumor xenografts (Homo sapiens, UniProt P04049+P06400); test: IP-Western of tumor lysates, Rb:Raf-1; assay type: in vivo, nude mice; conditions: both doses
T2 construct: from tissue; host or cells: A549 xenograft tumors from nude mice
T2 sequence (P06400 whole entry): as above
T2 sequence (P04049 whole entry): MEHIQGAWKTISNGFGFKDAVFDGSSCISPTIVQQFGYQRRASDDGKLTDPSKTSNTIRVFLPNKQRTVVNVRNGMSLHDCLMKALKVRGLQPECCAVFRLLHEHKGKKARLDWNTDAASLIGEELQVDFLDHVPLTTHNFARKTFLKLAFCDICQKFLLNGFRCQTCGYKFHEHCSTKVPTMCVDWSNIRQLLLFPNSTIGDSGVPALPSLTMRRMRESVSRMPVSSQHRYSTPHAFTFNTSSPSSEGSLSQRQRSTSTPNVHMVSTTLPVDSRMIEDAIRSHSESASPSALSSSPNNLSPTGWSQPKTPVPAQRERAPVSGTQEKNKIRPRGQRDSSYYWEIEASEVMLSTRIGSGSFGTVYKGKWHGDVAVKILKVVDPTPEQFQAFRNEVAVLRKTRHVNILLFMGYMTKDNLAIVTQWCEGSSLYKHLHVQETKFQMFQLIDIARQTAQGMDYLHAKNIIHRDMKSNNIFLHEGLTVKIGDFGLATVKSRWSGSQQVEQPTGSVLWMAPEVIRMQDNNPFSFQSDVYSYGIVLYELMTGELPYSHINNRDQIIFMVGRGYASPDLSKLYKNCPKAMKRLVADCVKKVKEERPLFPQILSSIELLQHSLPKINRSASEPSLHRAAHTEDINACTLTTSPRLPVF
Experimental: as §1
At the end of the drug treatment, the A549 tumors were removed from the mice and fixed in formalin or snap frozen in liquid nitrogen for further histochemical analysis. The tumors were analyzed by immunohistochemistry staining with hematoxylin and eosin (H&E), TUNEL, Ki-67, phospho-Rb (807,811), and CD-31. […] Tumors were homogenized and lysates were prepared to assess the inhibition of Rb:Raf-1 interaction in vivo.

For `Cl.N=C(N)SCc1ccc(Cl)cc1Cl` [Compound 3a], which IC50 [1] is on record?
The IC50 was 77 nM.

What about the “serum-mediated binding of Raf-1 to Mek1/2” value [2] of the same molecule?
Its value is “not affected”.

And the “inhibition of S-phase entry, Aspc1, PANC1, CAPAN2” value [3]?
The value was 50-65%.

What about the “inhibition of proliferation, LNCaP” value [4] of the same molecule?
Its value is 86%.

And the “inhibition of proliferation, PC3” value [5]?
The value was 35%.

And the “rescue of anti-proliferative activity by cyclin D over expression” value [6]?
The value was “only a partial effect”.

What about the “adherence-independent growth in soft agar, PANC1” value [7] of the same molecule?
Its value is “significantly inhibited the growth”.

And the “H1650 tumor growth in words” value ([8]; 50 mpk i.p.)?
Its value is “inhibited H1650 xenograft tumor growth; also recorded: inhibited the growth of these tumors significantly”.

And the “tumor size, H1650 xenograft” value ([8]; 50 mpk/day i.p., vehicle 2185±326 mm^3)?
Its value is 557±76 mm3.

What about the “tumor growth, A549-sh6 tumors lacking Rb” value [9] of the same molecule?
Its value is “unable to inhibit tumor growth; also recorded: did not respond”.

And the “Rb:Raf-1 interaction in tumor lysates” value [10]?
The value was “inhibit the Rb:Raf-1 interaction in tumor lysates”.
